From patent publication US9975903B2, “Condensed heterocyclic compound” (Takeda Pharmaceutical Company Limited, priority 2014, dated 2018)

Target: T1, Human recombinant enteropeptidase (Homo sapiens, UniProt P98073)
T1 construct: purchased ITSI-Biosciences LLC #REN-260
Assay: Human enteropeptidase inhibitory activity (Test Example 1)
Assay type: biochemical
Settings: 3.3 μM test compound; inhibition rate from fluorescence intensity at 2 hours after the start of the reaction; read-out: 3.3 μM Inhibition
Summary of the method: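 Recombinant human enteropeptidase in 50 mM Tricine pH 8.0, 0.01% Tween 20, 10 mM CaCl2, with a 5FAM/CPQ2-quenched peptide substrate (2.1 μM solution before mixing). Compound came from 1 mM DMSO stock diluted 100-fold in buffer. Fluorescence (ex 485/em 535 nm) at 2 h gave % inhibition versus no-compound and no-enzyme controls.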

T1 sequence (P98073 whole entry): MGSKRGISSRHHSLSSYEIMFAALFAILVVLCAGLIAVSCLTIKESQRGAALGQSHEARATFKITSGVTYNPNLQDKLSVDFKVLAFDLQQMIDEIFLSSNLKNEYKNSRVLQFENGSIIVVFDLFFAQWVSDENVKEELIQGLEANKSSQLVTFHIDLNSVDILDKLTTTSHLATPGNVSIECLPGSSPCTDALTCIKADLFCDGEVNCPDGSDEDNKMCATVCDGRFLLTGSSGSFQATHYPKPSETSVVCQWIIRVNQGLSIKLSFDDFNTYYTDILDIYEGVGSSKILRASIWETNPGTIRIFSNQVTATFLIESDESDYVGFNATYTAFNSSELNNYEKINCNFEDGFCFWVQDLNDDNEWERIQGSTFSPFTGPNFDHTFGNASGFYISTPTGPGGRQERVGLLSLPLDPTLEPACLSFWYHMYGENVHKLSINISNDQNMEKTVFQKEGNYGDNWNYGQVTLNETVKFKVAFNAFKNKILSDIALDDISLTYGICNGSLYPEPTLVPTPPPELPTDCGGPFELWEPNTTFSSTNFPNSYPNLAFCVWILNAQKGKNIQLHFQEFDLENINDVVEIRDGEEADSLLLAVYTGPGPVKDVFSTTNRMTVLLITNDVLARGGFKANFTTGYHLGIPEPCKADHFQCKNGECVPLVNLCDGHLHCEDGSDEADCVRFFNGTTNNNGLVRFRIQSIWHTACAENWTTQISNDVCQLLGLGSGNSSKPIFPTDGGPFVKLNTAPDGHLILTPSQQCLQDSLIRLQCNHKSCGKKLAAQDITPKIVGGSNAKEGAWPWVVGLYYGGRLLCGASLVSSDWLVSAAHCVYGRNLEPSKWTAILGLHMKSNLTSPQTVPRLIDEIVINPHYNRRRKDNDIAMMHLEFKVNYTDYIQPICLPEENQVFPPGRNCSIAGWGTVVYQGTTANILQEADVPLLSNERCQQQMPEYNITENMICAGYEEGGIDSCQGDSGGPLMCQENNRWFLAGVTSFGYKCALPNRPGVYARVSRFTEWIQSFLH

`N=C(N)Nc1ccc2c(c1)CCCOc1c(cccc1C(=O)N(CC(=O)O)[C@@H](CC(=O)O)C(=O)O)OC2=O` [Example 104, N-((10-Carbamimidamido-13-oxo-6,7,8,13-tetrahydrodibenzo[b,f][1,4]dioxecin-4-yl)carbonyl)-N-(carboxymethyl)-L-aspartic acid] showed an inhibition at 3.3 µM of 100%.

`CN(CC(=O)N(C)[C@@H](CC(=O)O)C(=O)O)C(=O)c1cccc2c1OCCCc1cc(NC(=N)N)ccc1C(=O)O2` [Example 105, N-((10-carbamimidamido-13-oxo-6,7,8,13-tetrahydro-dibenzo[b,f] [1,4]dioxecin-4-yl)carbonyl)-N-methylglycyl-N-methyl-L-aspartic acid] was tested, and the inhibition at 3.3 µM was 101%.

In the case of `N=C(N)Nc1ccc2c(c1)CCCOc1c(cccc1C(=O)N(CC(=O)O)C(CC(=O)O)CC(=O)O)OC2=O` [Example 106, 3-(((10-Carbamimidamido-13-oxo-6,7,8,13-tetrahydrodibenzo[b,f][1,4]dioxecin-4-yl)carbonyl) (carboxymethyl)amino)pentanedioic acid], the inhibition at 3.3 µM is reported as 100%.

Compound `N=C(N)Nc1ccc2c(c1)CCCOc1c(cccc1C(=O)N(Cc1ccccc1)[C@@H](CC(=O)O)C(=O)O)OC2=O` [Example 107, N-benzyl-N-((10-carbamimidamido-13-oxo-6,7,8,13-tetrahydro-dibenzo[b,f] [1,4]dioxecin-4-yl)carbonyl)-L-aspartic acid] has an inhibition at 3.3 µM of 101%.

Work on `N=C(N)Nc1ccc2c(c1)CCCOc1c(cccc1C(=O)N(CC(=O)O)[C@@H](Cc1ccc(OCCN(CC(=O)O)CC(=O)O)cc1)C(=O)O)OC2=O` [Example 108, O-(2-(Bis(carboxymethyl)amino)ethyl)-N-((10-carbamimidamido-13-oxo-6,7,8,13-tetrahydrodibenzo[b,f][1,4]dioxecin-4-yl)carbonyl)-N-(carboxymethyl)-L-tyrosine] yielded an inhibition at 3.3 µM of 100%.

In the case of `COCCN(C(=O)c1cccc2c1OCCCc1cc(NC(=N)N)ccc1C(=O)O2)[C@@H](CC(=O)O)C(=O)O` [Example 109, N-((10-carbamimidamido-13-oxo-6,7,8,13-tetrahydro-dibenzo[b,f] [1,4]dioxecin-4-yl)carbonyl)-N-(2-methoxyethyl)-L-aspartic acid], the inhibition at 3.3 µM is reported as 100%.

`N=C(N)Nc1ccc2c(c1)CCCOc1c(ccc(CCC(=O)O)c1C(=O)N[C@@H](CC(=O)O)C(=O)O)OC2=O` [Example 110, N-((10-Carbamimidamido-3-(2-carboxyethyl)-13-oxo-6,7,8,13-tetrahydrodibenzo[b,f][1,4]dioxecin-4-yl)carbonyl)-L-aspartic acid] was tested, and the inhibition at 3.3 µM was 100%.

With `N=C(N)Nc1ccc2c(c1)CCCOc1c(ccc(CCC(=O)O)c1C(=O)O)OC2=O` [Example 111, 10-carbamimidamido-3-(2-carboxyethyl)-13-oxo-6,7,8,13-tetrahydro-dibenzo[b,f] [1,4]dioxecine-4-carboxylic acid] the inhibition at 3.3 µM was 100%.

`COc1ccc(C[C@H](NC(=O)c2c(CCC(=O)O)ccc3c2OCCCc2cc(NC(=N)N)ccc2C(=O)O3)C(=O)O)cc1` [Example 112, N-((10-carbamimidamido-3-(2-carboxyethyl)-13-oxo-6,7,8,13-tetrahydro-dibenzo[b,f] [1,4]dioxecin-4-yl)carbonyl)-O-methyl-L-tyrosine] showed an inhibition at 3.3 µM of 99%.

With `N=C(N)Nc1ccc2c(c1)CCCOc1c(ccc(CCC(=O)O)c1C(=O)N[C@@H](Cc1ccc(O)cc1)C(=O)O)OC2=O` [Example 113, N-((10-carbamimidamido-3-(2-carboxyethyl)-13-oxo-6,7,8,13-tetrahydro-dibenzo[b,f] [1,4]dioxecin-4-yl)carbonyl)-L-tyrosine] the inhibition at 3.3 µM was 99%.

For `N#Cc1cc2c(c(C(=O)N[C@@H](CC(=O)O)C(=O)O)c1)OCCCc1cc(NC(=N)N)ccc1C(=O)O2` [Example 114, N-((10-Carbamimidamido-2-cyano-13-oxo-6,7,8,13-tetrahydrodibenzo[b,f][1,4]dioxecin-4-yl)carbonyl)-L-aspartic acid], the inhibition at 3.3 µM was 99%.

`N=C(N)Nc1ccc2c(c1)CCCOc1c(cccc1C(=O)N(CC(=O)O)CC(=O)N(CC(=O)O)CC(=O)O)OC2=O` [Example 115, ((2-(Bis(carboxymethyl)amino)-2-oxoethyl) ((10-carbamimidamido-13-oxo-6,7,8,13-tetrahydrodibenzo[b,f][1,4]dioxecin-4-yl)carbonyl)amino)acetic acid] was tested, and the inhibition at 3.3 µM was 99%.

With `N=C(N)Nc1ccc2c(c1)CCCOc1c(cccc1C(=O)N(CC(=O)O)Cc1cccc(CN(CC(=O)O)CC(=O)O)c1)OC2=O` [Example 116, N-(3-((Bis(carboxymethyl)amino)methyl)benzyl)-N-((10-carbamimidamido-13-oxo-6,7,8,13-tetrahydrodibenzo[b,f][1,4]dioxecin-4-yl)carbonyl)glycine] the inhibition at 3.3 µM was 99%.

For `N=C(N)Nc1ccc2c(c1)CCCOc1c(cc(CCC(=O)O)cc1C(=O)N[C@@H](CC(=O)O)C(=O)O)OC2=O` [Example 117, N-((10-carbamimidamido-2-(2-carboxyethyl)-13-oxo-6,7,8,13-tetrahydro-dibenzo[b,f] [1,4]dioxecin-4-yl)carbonyl)-L-aspartic acid], the inhibition at 3.3 µM was 100%.

Compound `CN(C(=O)c1c(CCC(=O)O)ccc2c1OCCCc1cc(NC(=N)N)ccc1C(=O)O2)[C@@H](CC(=O)O)C(=O)O` [Example 118, N-((10-Carbamimidamido-3-(2-carboxyethyl)-13-oxo-6,7,8,13-tetrahydrodibenzo[b,f][1,4]dioxecin-4-yl)carbonyl)-N-methyl-L-aspartic acid] has an inhibition at 3.3 µM of 101%.

In the case of `N=C(N)Nc1ccc2c(c1)CCCOc1c(ccc(CCC(=O)O)c1C(=O)N(CC(=O)O)CC(=O)O)OC2=O` [Example 119, 3-(4-(Bis(carboxymethyl)carbamoyl)-10-carbamimidamido-13-oxo-6,7,8,13-tetrahydrodibenzo[b,f][1,4]dioxecin-3-yl)propanoic acid], the inhibition at 3.3 µM is reported as 101%.

For `N=C(N)Nc1ccc2c(c1)CCCOc1c(cccc1C(=O)N(CC(=O)O)[C@@H](Cc1ccc(OCCNCC(=O)O)cc1)C(=O)O)OC2=O` [Example 121, N-((10-Carbamimidamido-13-oxo-6,7,8,13-tetrahydrodibenzo[b,f][1,4]dioxecin-4-yl)carbonyl)-N-(carboxymethyl)-O-(2-((carboxymethyl)amino)ethyl)-L-tyrosine], the inhibition at 3.3 µM was 101%.

`N=C(N)Nc1ccc2c(c1)CCCOc1c(ccc(CCC(=O)NC(CC(=O)O)CC(=O)O)c1C(=O)N[C@@H](Cc1ccc(O)cc1)C(=O)O)OC2=O` [Example 123, 3-((3-(10-carbamimidamido-4-(((1S)-1-carboxy-2-(4-hydroxyphenyl)ethyl)carbamoyl)-13-oxo-6,7,8,13-tetrahydro-dibenzo[b,f] [1,4]dioxecin-3-yl)propanoyl)amino) pentanedioic acid] was tested, and the inhibition at 3.3 µM was 101%.

In the case of `N=C(N)Nc1ccc2c(c1)CCCOc1c(ccc(CCC(=O)N(CC(=O)O)CC(=O)O)c1C(=O)N[C@@H](Cc1ccc(O)cc1)C(=O)O)OC2=O` [Example 124, N-((3-(3-(bis(carboxymethyl)amino)-3-oxopropyl)-10-carbamimidamido-13-oxo-6,7,8,13-tetrahydro-dibenzo[b,f] [1,4]dioxecin-4-yl)carbonyl)-L-tyrosine], the inhibition at 3.3 µM is reported as 101%.

Compound `N=C(N)Nc1ccc2c(c1)CCCOc1c(cccc1C(=O)N(CC(=O)O)Cc1cccc(CN(CC(=O)O)CC(=O)O)n1)OC2=O` [Example 126, N-((6-((bis(carboxy-methyl)amino)methyl)pyridin-2-yl)methyl)-N-((10-carbamimidamido-13-oxo-6,7,8,13-tetrahydro-dibenzo[b,f] [1,4]dioxecin-4-yl)carbonyl)glycine] has an inhibition at 3.3 µM of 100%.

For `N=C(N)Nc1ccc2c(c1)CCCOc1c(cccc1C(=O)N(CC(=O)O)Cc1ccccc1C(=O)O)OC2=O` [Example 127], the inhibition at 3.3 µM was 100%.

Compound `N=C(N)Nc1ccc2c(c1)CCCCc1c(cccc1C(=O)N(CC(=O)O)Cc1cccc(C(=O)O)c1)OC2=O` [Example 128] has an inhibition at 3.3 µM of 100%.

Compound `N=C(N)Nc1ccc2c(c1)CCCOc1c(ccc(CCC(=O)N(CC(=O)O)CC(=O)O)c1C(=O)O)OC2=O` [Example 129, 3-(3-(bis(carboxy-methyl)amino)-3-oxopropyl)-10-carbamimidamido-13-oxo-6,7,8,13-tetrahydro-dibenzo[b,f] [1,4]dioxecine-4-carboxylic acid] has an inhibition at 3.3 µM of 100%.

`COc1ccc(C[C@H](NC(=O)c2c(CCC(=O)N(CC(=O)O)CC(=O)O)ccc3c2OCCCc2cc(NC(=N)N)ccc2C(=O)O3)C(=O)O)cc1` [Example 130, N-((3-(3-(bis(carboxymethyl)amino)-3-oxopropyl)-10-carbamimidamido-13-oxo-6,7,8,13-tetrahydro-dibenzo[b,f] [1,4]dioxecin-4-yl)carbonyl)-O-methyl-L-tyrosine] showed an inhibition at 3.3 µM of 99%.

`N=C(N)Nc1ccc2c(c1)CCCOc1c(ccc(CCC(=O)NC(CC(=O)O)CC(=O)O)c1C(=O)O)OC2=O` [Example 131, 3-((3-(10-carbamimidamido-4-carboxy-13-oxo-6,7,8,13-tetrahydro-dibenzo[b,f] [1,4]dioxecin-3-yl)propanoyl)amino) pentanedioic acid] gave an inhibition at 3.3 µM of 100%.

`COc1ccc(C[C@H](NC(=O)c2c(CCC(=O)NC(CC(=O)O)CC(=O)O)ccc3c2OCCCc2cc(NC(=N)N)ccc2C(=O)O3)C(=O)O)cc1` [Example 132, 3-((3-(10-carbamimidamido-4-(((1S)-1-carboxy-2-(4-methoxyphenyl)ethyl)carbamoyl)-13-oxo-6,7,8,13-tetrahydro-dibenzo[b,f] [1,4]dioxecin-3-yl)propanoyl)amino) pentanedioic acid] showed an inhibition at 3.3 µM of 100%.

Compound `N=C(N)Nc1ccc2c(c1)CCCOc1c(cccc1C(=O)N(CC(=O)O)[C@@H](Cc1ccccc1)C(=O)O)OC2=O` [Example 133, N-((10-carbamimidamido-13-oxo-6,7,8,13-tetrahydro-dibenzo[b,f] [1,4]dioxecin-4-yl)carbonyl)-N-(carboxymethyl)-L-phenylalanine] has an inhibition at 3.3 µM of 100%.
